Assay results from patent EP1099439A2, “Use of apo B secretion/MTP inhibitors” (Pfizer Products Inc., priority 1999, dated 2001).

Tested on: intestinal fat absorption
Test: Intestinal fat absorption reduction determination (gravimetric fecal fat content) in dogs
Format: in vivo
Conditions: male beagles, oral gavage, dosing solution 0.5 mg/mL, 1 mL per kg body weight, single daily dose on Days 0 and 5-12; fecal fat determined gravimetrically
From the text: Healthy, young adult (1-2 years of age) male beagles (Marshall Farms, North Rose, New York, NY 14516) weighing 11.45 - 12.45 kg at the start of the treatment period were employed as test subjects. The animals were housed individually in standard caging meeting or exceeding the USDA regulations (U.S. Department of Agriculture, Animal Welfare, Final Rules. 9 C.F.R. Parts 1-3, 1995).
The test compound was provided as a water-soluble powder. The dosing solution, administered by oral gavage, was provided employing a 0.025 M citrate buffer (approx. pH = 3) prepared using anyhdrous citric acid (0.4 g/mL) and anhydrous sodium citrate (0.1 g/mL) as the test vehicle. The dosing solution was prepared at 0.5 mg/mL activity so that 1 mL was delivered per kg body weight. Following a fourteen day acclimation period (designated as Days -14 to -1), during which time the test animals were evaluated for certain criteria including determination of body weight, physical examinations, and initial fecal specimen collection, a sixteen day evaluation study was effected. […]
Fecal specimens were collected daily over approximately 24 hours (±1 hr) prestudy and then beginning on Day -2 and terminating on Day 16. The fecal specimens so collected were weighed (total grams of bulk feces) frozen, stored at -26°C to -20°C and then analyzed for fecal fat content. […]

| Structure (SMILES) | reduced intestinal fat absorption in dogs [%] |
| --- | --- |
| CC(=O)NCCN1CCc2cc(NC(=O)c3ccccc3-c3ccc(C(F)(F)F)cc3)ccc2C1 [4'-trifluoromethyl-biphenyl-2-carboxylic acid-[2-(2-acetylaminoethyl)-1,2,3,4-tetrahydroisoquinolin-6-yl amide] | 49 |
| CCCCN1CCc2cc(NC(=O)c3ccccc3-c3ccc(C(F)(F)F)cc3)ccc2C1 [4'-trifluoromethyl-biphenyl-2-carboxylic acid-(2-butyl-1,2,3,4-tetrahydroisoquinolin-6-yl)-amide] | 26 |
